These results are taken from patent US20070092576A1, “Compositions containing opioid antagonists” (Adolor Corporation, priority 2005, published 2007).

In one series the test system is analgesia. Put plainly: Propensity for reversing analgesia after oral administration. The format is in vivo. To be noted: administered orally; compared with alvimopan.
Series [1] is described as follows: Solubility of the drug substance. The series is classed as physicochemical. To be noted: for solubility in water: dihydrate.

For the molecule `C[C@H]1CN(C[C@H](Cc2ccccc2)C(=O)O)CC[C@@]1(C)c1cccc(O)c1` [(3R, 4R, S)-Q-CH2CH(CH2(C6H5))C(O)OH, (αS,3R,4R)-4-(3-hydroxyphenyl)-3,4-dimethyl-α-(phenylmethyl)-1-piperidinepropanoic acid monohydrate], the “propensity for reversing analgesia” value in the series with analgesia was “much greater propensity for undesirably reversing analgesia than alvimopan”.

`C[C@H]1CN(C[C@H](Cc2ccccc2)C(=O)NCC(=O)O)CC[C@@]1(C)c1cccc(O)c1` [Alvimopan, [[2(S)-[[4(R)-(3-hydroxyphenyl)-3(R),4-dimethyl-1-piperidinyl]methyl]-1-oxo-3-phenylpropyl]amino]acetic acid dihydrate]: the “solubility as a function of pH” value in series [1] (acid pH versus basic pH) was “more soluble at an acid pH than a basic pH”. For the same molecule, the solubility in water result is given as “extremely low solubility in water” in series [1] and “low solubility in water except at low or high pH conditions” in series [1] (listed as compound of formula (II)).
